Source: the supplement of paper PMC10307832

How the values were obtained:
Assay in all cases: relative viability (nuclei count vs DMSO), 5 days (fraction); higher = more cells survive
Crenolanib + Linsitinib = compound: CC1(COc2ccc3c(c2)ncn3-c2ccc3cccc(N4CCC(N)CC4)c3n2)COC1 [Crenolanib] + C[C@]1(O)C[C@@H](c2nc(-c3ccc4ccc(-c5ccccc5)nc4c3)c3c(N)nccn32)C1 [Linsitinib] (partner 1 µM)
In short: (§1)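 Lung cancer cell lines in 1536-well plates were dosed by pin tool the day after seeding, either with one drug alone or with a fixed anchor-drug dose plus five library-drug doses (not always all listed) in √10 steps. After 5 days, cells were fixed and their nuclei stained in one step (final 0.05% Triton X-100, 1% formaldehyde, 1 ug/ml Hoechst), then counted on 4× images. Relative viability is the nuclei count in treated wells divided by that in vehicle wells. Values are medians of duplicate plates.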

Tivantinib + Crizotinib = compound: O=C1NC(=O)[C@@H](c2cn3c4c(cccc24)CCC3)[C@@H]1c1c[nH]c2ccccc12 [Tivantinib] + C[C@@H](Oc1cc(-c2cnn(C3CCNCC3)c2)cnc1N)c1c(Cl)ccc(F)c1Cl [Crizotinib] (partner 1 µM)
In short: as §1

Tivantinib + Pemetrexed = compound: O=C1NC(=O)[C@@H](c2cn3c4c(cccc24)CCC3)[C@@H]1c1c[nH]c2ccccc12 [Tivantinib] + Nc1nc2[nH]cc(CCc3ccc(C(=O)N[C@@H](CCC(=O)O)C(=O)O)cc3)c2c(=O)[nH]1 [Pemetrexed] (partner 0.2 µM)
In short: as §1

Tivantinib + Olaparib = compound: O=C1NC(=O)[C@@H](c2cn3c4c(cccc24)CCC3)[C@@H]1c1c[nH]c2ccccc12 [Tivantinib] + O=C(c1cc(Cc2n[nH]c(=O)c3ccccc23)ccc1F)N1CCN(C(=O)C2CC2)CC1 [Olaparib] (partner 8 µM)
In short: as §1

In the case of HCC-366, the relative viability (Crenolanib + Linsitinib; first compound 0.01 µM) is reported as 0.628, the relative viability (Crenolanib + Linsitinib; first compound 0.03162 µM) is reported as 0.738 and the relative viability (Crenolanib + Linsitinib; first compound 0.1 µM) is reported as 0.574. The relative viability (Crenolanib + Linsitinib; first compound 0.3162 µM) was 0.819, the relative viability (Crenolanib + Linsitinib; first compound 1 µM) was 0.69 and the relative viability (Tivantinib + Crizotinib; first compound 0.01 µM) was 0.641. It also gave a relative viability (Tivantinib + Crizotinib; first compound 0.03162 µM) of 0.559, a relative viability (Tivantinib + Crizotinib; first compound 0.1 µM) of 0.43 and a relative viability (Tivantinib + Crizotinib; first compound 0.3162 µM) of 0.672. For the same cell line, the relative viability (Tivantinib + Pemetrexed; first compound 0.01 µM) was 0.163, the relative viability (Tivantinib + Pemetrexed; first compound 0.03162 µM) was 0.145 and the relative viability (Tivantinib + Pemetrexed; first compound 0.1 µM) was 0.148. It also gave a relative viability (Tivantinib + Pemetrexed; first compound 0.3162 µM) of 0.149, a relative viability (Tivantinib + Olaparib; first compound 0.01 µM) of 0.278 and a relative viability (Tivantinib + Olaparib; first compound 0.03162 µM) of 0.35. For the same cell line, the relative viability (Tivantinib + Olaparib; first compound 0.1 µM) was 0.308 and the relative viability (Tivantinib + Olaparib; first compound 0.3162 µM) was 0.346.

With LCLC-97TM1 the relative viability (Crenolanib + Linsitinib; first compound 0.01 µM) was 0.18, the relative viability (Crenolanib + Linsitinib; first compound 0.03162 µM) was 0.222 and the relative viability (Crenolanib + Linsitinib; first compound 0.1 µM) was 0.185. For the same cell line, the relative viability (Crenolanib + Linsitinib; first compound 0.3162 µM) was 0.186, the relative viability (Crenolanib + Linsitinib; first compound 1 µM) was 0.184 and the relative viability (Tivantinib + Crizotinib; first compound 0.01 µM) was 0.451. It also gave a relative viability (Tivantinib + Crizotinib; first compound 0.03162 µM) of 0.305, a relative viability (Tivantinib + Crizotinib; first compound 0.1 µM) of 0.38 and a relative viability (Tivantinib + Crizotinib; first compound 0.3162 µM) of 0.318. The relative viability (Tivantinib + Pemetrexed; first compound 0.01 µM) was 0.148, the relative viability (Tivantinib + Pemetrexed; first compound 0.03162 µM) was 0.165 and the relative viability (Tivantinib + Pemetrexed; first compound 0.1 µM) was 0.157. The relative viability (Tivantinib + Pemetrexed; first compound 0.3162 µM) was 0.191, the relative viability (Tivantinib + Olaparib; first compound 0.01 µM) was 0.39 and the relative viability (Tivantinib + Olaparib; first compound 0.03162 µM) was 0.414. For the same cell line, the relative viability (Tivantinib + Olaparib; first compound 0.1 µM) was 0.455 and the relative viability (Tivantinib + Olaparib; first compound 0.3162 µM) was 0.407.

For NCI-H460, the relative viability (Crenolanib + Linsitinib; first compound 0.01 µM) was 0.85, the relative viability (Crenolanib + Linsitinib; first compound 0.03162 µM) was 0.817 and the relative viability (Crenolanib + Linsitinib; first compound 0.1 µM) was 0.745. The relative viability (Crenolanib + Linsitinib; first compound 0.3162 µM) was 1.02, the relative viability (Crenolanib + Linsitinib; first compound 1 µM) was 0.816 and the relative viability (Tivantinib + Crizotinib; first compound 0.01 µM) was 0.878. The relative viability (Tivantinib + Crizotinib; first compound 0.03162 µM) was 0.884, the relative viability (Tivantinib + Crizotinib; first compound 0.1 µM) was 0.848 and the relative viability (Tivantinib + Crizotinib; first compound 0.3162 µM) was 0.217. It also gave a relative viability (Tivantinib + Pemetrexed; first compound 0.01 µM) of 0.059, a relative viability (Tivantinib + Pemetrexed; first compound 0.03162 µM) of 0.0663 and a relative viability (Tivantinib + Pemetrexed; first compound 0.1 µM) of 0.0596. For the same cell line, the relative viability (Tivantinib + Pemetrexed; first compound 0.3162 µM) was 0.0576, the relative viability (Tivantinib + Olaparib; first compound 0.01 µM) was 0.412 and the relative viability (Tivantinib + Olaparib; first compound 0.03162 µM) was 0.429. It also gave a relative viability (Tivantinib + Olaparib; first compound 0.1 µM) of 0.399 and a relative viability (Tivantinib + Olaparib; first compound 0.3162 µM) of 0.39.

Cell Line H3255 has a relative viability (Crenolanib + Linsitinib; first compound 0.01 µM) of 0.923, a relative viability (Crenolanib + Linsitinib; first compound 0.03162 µM) of 0.872 and a relative viability (Crenolanib + Linsitinib; first compound 0.1 µM) of 0.92. The relative viability (Crenolanib + Linsitinib; first compound 0.3162 µM) was 0.938, the relative viability (Crenolanib + Linsitinib; first compound 1 µM) was 1.04 and the relative viability (Tivantinib + Crizotinib; first compound 0.01 µM) was 0.905. It also gave a relative viability (Tivantinib + Crizotinib; first compound 0.03162 µM) of 0.922, a relative viability (Tivantinib + Crizotinib; first compound 0.1 µM) of 0.763 and a relative viability (Tivantinib + Pemetrexed; first compound 0.01 µM) of 0.554. It also gave a relative viability (Tivantinib + Pemetrexed; first compound 0.03162 µM) of 0.586, a relative viability (Tivantinib + Pemetrexed; first compound 0.1 µM) of 0.598 and a relative viability (Tivantinib + Olaparib; first compound 0.01 µM) of 0.599. It also gave a relative viability (Tivantinib + Olaparib; first compound 0.03162 µM) of 0.588 and a relative viability (Tivantinib + Olaparib; first compound 0.1 µM) of 0.57.
